Where two headings read alike, the source gives them in different places. Positions of bridges follow the written chain, without caps; N, C: chain ends. Non-standard residues stand in square brackets, D forms with d. Residues, ends and D or L forms follow the SMILES beside them. Triazole bridges read from a SMILES are 1,4-linked. *: point of attachment. Benzoyl(3,5-(OH)2) = O=C(c1cc(O)cc(O)c1)*; Lys(N3) = [N-]=[N+]=NCCCC[C@H](N)C(=O)O; dPhe(4-F) = N[C@H](Cc1ccc(F)cc1)C(=O)O; Nle = CCCC[C@H](N)C(=O)O; Pra = C#CC[C@H](N)C(=O)O
Columns and labels:
human recombinant MC5R = biological target: T1, human recombinant MC5R (Homo sapiens, UniProt P33032); assay: Ca2+ signalling functional assay, MC5R stable cell line (CHO-K1/Ga15); assay type: cell-based
T1 construct: host or cells: CHO-K1/Ga15
Procedure: The Ca^2+ signalling functional assay was performed on a human recombinant MC5R stable cell line (CHO-K1/Ga15, GenScript). The cells were cultured at 37° C. and 5% C02 with culture medium (90% Ham's F-12K (Kaighn's)+10% FBS+400 μg/mL G418+100 μg/mL Hygromycin B). Cells were washed with PBS and then detached by incubation with 0.05% (w/v) Trypsin EDTA at 37° C. for 2 to 5 mins. Detached cells were suspended in Ham's F-12K (Kaighn's) (containing 10% FBS) and a 50 μL cell suspension is seeded into each well of a 384-well assay plate at a density of 15,000 cells/well. Cells were allowed to settle overnight at 37° C., 5% CO2. […] Then, 100 nL of compounds were transferred to the compound plate by the Echo machine. Thirty microliter assay buffer was added to the compounds plate and then shaken for 20-40 minutes. The plates were placed on the FLIPR and 15 μL of the compound was added to each well, then calcium flux signal was measured.

[1] = In vivo topical administration pharmacokinetics of K173, rabbit (aqueous humor, cornea); details: for level at 0.5 h / level at 1 h / level at 2 h / level at 4 h / level at 8 h / level at 24 h: aqueous humor, topical or ocular; for level at 0.5 h: 30 Min post-last dose; for level at 1 h: 1 hr post-last dose; for level at 2 h: 2 hr post-last dose; for level at 4 h: 4 hr post-last dose; for level at 8 h: 8 hr post-last dose; for level at 24 h: 24 hr post-last dose
Procedure: Animals were not tranquilized for the examinations.
The remaining ocular tissues were discarded. Ocular samples were stored −80° C.
The rabbit efficacy model can be used to determine if QD or BID dosing is optimal for clinical utility.

[2] = 5 mg/ml solution, 35 L per eye, Group 1 (single dose), topical 5 mg/ml, OD, Mean, read-out: K173 Concentrations (ng/mL) in Rabbit Aqueous Humor OD Sample, Mean
[3] = 5 mg/ml solution, 35 L per eye, Group 1 (single dose), topical 5 mg/ml, OS, Mean, read-out: K173 Concentrations (ng/mL) in Rabbit Aqueous Humor OS Sample, Mean
[4] = 5 mg/ml solution, 35 L per eye, Group 2 (4 doses), topical 5 mg/ml, OD, Mean, read-out: K173 Concentrations (ng/mL) in Rabbit Aqueous Humor OD Sample, Mean
[5] = 5 mg/ml solution, 35 L per eye, Group 2 (4 doses), topical 5 mg/ml, OS, Mean, read-out: K173 Concentrations (ng/mL) in Rabbit Aqueous Humor OS Sample, Mean
[6] = 5 mg/ml solution, 35 L per eye, Group 3 (8 BID doses), topical 5 mg/ml, OD, Mean, read-out: K173 Concentrations (ng/mL) in Rabbit Aqueous Humor OD Sample, Mean
[7] = 5 mg/ml solution, 35 L per eye, Group 3 (8 BID doses), topical 5 mg/ml, OS, Mean, read-out: K173 Concentrations (ng/mL) in Rabbit Aqueous Humor OS Sample, Mean
[8] = 5 mg/ml, Group 1 (single dose), topical 5 mg/ml, OD, Mean, read-out: K173 Concentrations (ng/mL) in Rabbit Aqueous Humor OD Sample, Mean
[9] = 5 mg/ml, Group 1 (single dose), topical 5 mg/ml, OS, Mean, read-out: K173 Concentrations (ng/mL) in Rabbit Aqueous Humor OS Sample, Mean
[10] = 5 mg/ml, Group 1 (single dose), topical 5 mg/ml, OS, individual animals, read-out: K173 Concentrations (ng/mL) in Rabbit Aqueous Humor OS Sample
[11] = 5 mg/ml, Group 2 (4 doses), topical 5 mg/ml, OD, Mean, read-out: K173 Concentrations (ng/mL) in Rabbit Aqueous Humor OD Sample, Mean
[12] = 5 mg/ml, Group 2 (4 doses), topical 5 mg/ml, OS, Mean, read-out: K173 Concentrations (ng/mL) in Rabbit Aqueous Humor OS Sample, Mean
[13] = 5 mg/ml, Group 2 (4 doses), topical 5 mg/ml, OD, individual animals, read-out: K173 Concentrations (ng/mL) in Rabbit Aqueous Humor OD Sample
[14] = 5 mg/ml, Group 3 (8 BID doses), topical 5 mg/ml, OD, Mean, read-out: K173 Concentrations (ng/mL) in Rabbit Aqueous Humor OD Sample, Mean
[15] = 5 mg/ml, Group 3 (8 BID doses), topical 5 mg/ml, OS, Mean, read-out: K173 Concentrations (ng/mL) in Rabbit Aqueous Humor OS Sample, Mean

T1 sequence (P33032 whole entry): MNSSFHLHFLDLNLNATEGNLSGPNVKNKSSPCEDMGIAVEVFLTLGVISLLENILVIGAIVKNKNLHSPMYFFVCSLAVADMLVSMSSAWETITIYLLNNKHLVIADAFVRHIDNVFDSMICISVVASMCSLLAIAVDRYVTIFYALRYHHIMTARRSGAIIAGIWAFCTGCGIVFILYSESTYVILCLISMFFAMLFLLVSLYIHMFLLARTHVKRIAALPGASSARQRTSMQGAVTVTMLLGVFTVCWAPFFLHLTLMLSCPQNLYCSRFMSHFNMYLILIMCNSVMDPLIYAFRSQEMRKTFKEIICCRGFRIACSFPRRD

Work on `CCCC[C@H](NC(=O)c1cc(O)cc(O)c1)C(=O)N[C@H]1CCCCn2cc(nn2)C[C@@H](C(N)=O)NC(=O)[C@H](Cc2c[nH]c3ccccc23)NC(=O)[C@H](CCCNC(=N)N)NC(=O)[C@@H](Cc2ccc(F)cc2)NC(=O)[C@H](Cc2c[nH]cn2)NC1=O` [KR-072, HyBA-Nle-[Lys(N3)-His-Dphe(4-F)-Arg-Trp-Pra]-NH2] ({Benzoyl(3,5-(OH)2)}-[Nle][Lys(N3)]H[dPhe(4-F)]RW[Pra]-NH2; triazole 2-7) yielded an EC50 (human recombinant MC5R) of 78 nM, an IC50 (human recombinant MC5R; calcium flux functional assay) of 78 nM and a level at 0.5 h [1, 2] of 8.44 ng/mL. It also gave a level at 0.5 h [1, 3] of 1.36 ng/mL, a level at 1 h [1, 2] of 1.13 ng/mL and a level at 1 h [1, 3] of 5.22 ng/mL. It also gave a level at 0.5 h [1, 4] of 1.9 ng/mL, a level at 0.5 h [1, 5] of 3.47 ng/mL and a level at 1 h [1, 4] of 2.75 ng/mL. For the same molecule, the level at 1 h [1, 5] was 2.49 ng/mL, the level at 2 h [1, 6] was 10.5 ng/mL and the level at 2 h [1, 7] was 12.1 ng/mL. For the same molecule, the level at 4 h [1, 6] was 11.6 ng/mL, the level at 4 h [1, 7] was 7.33 ng/mL and the level at 8 h [1, 6] was 5.92 ng/mL. For the same molecule, the level at 8 h [1, 7] was 6.42 ng/mL, the level at 24 h [1, 6] was 3.79 ng/mL and the level at 24 h [1, 7] was 4.45 ng/mL. For the same molecule, the level at 2 h [1, 8] was 3.58 ng/mL, the level at 2 h [1, 9] was 1.89 ng/mL and the level at 4 h [1, 8] was 2.68 ng/mL. For the same molecule, the level at 4 h ([1]; 5 mg/ml, Group 1 (single dose), topical 5 mg/ml, OD, individual animals, read-out: K173 Concentrations (ng/mL) in Rabbit Aqueous Humor OD Sample) was 2.94 ng/mL, the level at 4 h [1, 9] was 3.35 ng/mL and the level at 4 h [1, 10] was 3.56 ng/mL. The level at 8 h [1, 8] was 5.77 ng/mL, the level at 8 h [1, 9] was 4.2 ng/mL and the level at 8 h [1, 10] was 3.34 ng/mL. It also gave a level at 24 h [1, 8] of 3.22 ng/mL, a level at 24 h [1, 9] of 2.46 ng/mL and a level at 24 h [1, 10] of 2.34 ng/mL. It also gave a level at 2 h [1, 11] of 5.76 ng/mL, a level at 2 h [1, 12] of 7.84 ng/mL and a level at 4 h [1, 11] of 4.61 ng/mL. It also gave a level at 4 h [1, 12] of 3.86 ng/mL, a level at 8 h [1, 11] of 10.9 ng/mL and a level at 8 h [1, 13] of 11.3 ng/mL. For the same molecule, the level at 8 h [1, 12] was 14.8 ng/mL, the level at 24 h [1, 11] was 1.98 ng/mL and the level at 24 h [1, 13] was 2.34 ng/mL. The level at 24 h [1, 12] was 2.33 ng/mL, the level at 24 h ([1]; 5 mg/ml, Group 2 (4 doses), topical 5 mg/ml, OS, individual animals, read-out: K173 Concentrations (ng/mL) in Rabbit Aqueous Humor OS Sample) was 2.3 ng/mL and the level at 0.5 h [1, 14] was 10.3 ng/mL. It also gave a level at 0.5 h [1, 15] of 8.11 ng/mL, a level at 1 h [1, 14] of 5 ng/mL and a level at 1 h ([1]; 5 mg/ml, Group 3 (8 BID doses), topical 5 mg/ml, OD, individual animals, read-out: K173 Concentrations (ng/mL) in Rabbit Aqueous Humor OD Sample) of 5.13 ng/mL. The level at 1 h [1, 15] was 6.56 ng/mL, the level at 1 h ([1]; 5 mg/ml, Group 3 (8 BID doses), topical 5 mg/ml, OS, individual animals, read-out: K173 Concentrations (ng/mL) in Rabbit Aqueous Humor OS Sample) was 7.48 ng/mL and the “Aqueous humor levels 24 hours after last dose” value ([1]; topical 5 mg/ml, all dose groups) was “measurable levels were detected after 24 hours in all dose groups”. The “ocular surface retention and Tmax” value ([1]; topical, after a single dose) was “prolonged ocular surface retention and Tmax”.
